According to US20250230138A1, “COMPOUNDS HAVING A T-STRUCTURE FORMED BY AT LEAST FOUR CYCLES FOR USE IN THE TREATMENT OF CANCER AND OTHER INDICATIONS” (TheRas, Inc., priority 2022, published 2025):
pIC50: −log10 of the molar value. Where two headings read alike, the source gives them in different places.

How the values were obtained:
[1] = test system: pAKT in BT474 cells; assay: Cell-based pAKT HTRF assay in BT474 cells; conditions: BT474 cells, 4 hr incubation, Compounds 10-999, read-out: pAKT inhibition IC50 in BT474 cells
Method: On Day 1, cells were seeded into 96-well plates at 2.5×10^4 cells/well in complete growth media (DMEM, 10% FBS). On Day 2, cells were treated with compounds at 0.25% DMSO. The source plate was created with compounds diluted in media at 5-fold the final assay concentration. The compounds are run in a 9-point concentration curve starting at 3 μM, with a 3-fold dilution between concentrations. 20 μL was transferred onto the cell plates (final volume in wells was 100 μL). Plates were harvested after 4 hr incubation by aspirating media and adding kit-supplied 1× supplemented lysis buffer to all wells (75 μL per well). Plates were then placed on a plate shaker and incubated at 850 rpm for an additional 30 min. The antibody mixture solution was prepared by diluting aliquoted d2 and Eu Cryptate antibodies 1:20 in kit supplied detection buffer, then mixed the diluted antibodies solutions (1:1 v:v). 4 μL of this solution was then added to a 384-well detection plate (Perkin Elmer; 6008230). Samples were homogenized by pipetting up and down and then transferred (16 μL of cell lysates) from the 96-well cell culture plate to two wells of the HTRF 384-well detection plate containing the antibody solution. Plates were centrifuged (524 g for 1 min) and allowed to incubate between 4 and 24 h at room temperature. The maximum signal is reached after 4 h incubation time and remains stable over a period of 24 hours. Therefore, readings can be made between 4 and 24 h of incubation. Plates were centrifuged again (524 g for 1 m), and analyzed on the EnVision plate reader using the following settings: Excitation 320 nm, Bandwidth […]; Emission 615 nm, Bandwidth […], Gain 10000, Flashes 100, Lag 60 μs.

[2] = biological target: Cys242 in human PIK3CA (157-299) (Homo sapiens (Human), UniProt P42336); assay: Covalent modification assay using MALDI-TOF MS; assay type: biochemical; conditions: 4 h reaction time point; 3.33 μM protein target, 1:7.5 protein to compound ratio (compounds 1-852)
Cys242 in human PIK3CA (157-299), sequence (P42336 157-299): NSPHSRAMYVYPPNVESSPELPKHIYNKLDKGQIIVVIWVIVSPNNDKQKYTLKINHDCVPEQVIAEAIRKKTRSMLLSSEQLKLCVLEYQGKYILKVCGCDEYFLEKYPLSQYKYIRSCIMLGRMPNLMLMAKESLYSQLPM
Method: Matrix-Assisted Laser Desorption Ionization-Time of Flight Mass Spectrometry (MALDI-TOF MS) analysis of covalent modification of Cys242 in human PIK3CA (157-299) was performed.
Reaction: 3.33 μM or 1 μM of PIK3CA (157-299) protein (produced in-house by Protein Expression Laboratory, FNLCR/Leidos Biomed) in 20 mM HEPES buffer containing 150 mM NaCl, 2 mM MgCl2, pH 7.3 was prepared freshly before assay. Twelve-μL aliquots of protein were dispensed onto low volume 384-well plate, then 470 nL DMSO and 30 nL of tested compounds from 10 mM DMSO stocks were added to appropriate wells using ECHO 555 acoustic liquid handler (Labcyte Inc.). For each reaction/assay, three blanks were prepared by mixing 12 μL of protein solution with 500 nL DMSO. The wells content was carefully mixed by aspiration, and then the plate was sealed by an adhesive cover, centrifuged at 931 g for 1 minute, and kept in the dark at room temperature until 15 min, 30 min, 2 h, or 4 h collections.
Targetpretreatment: Before each assay MALDI target (Bruker MPT 384 ground steel BC) was pre-treated by pipetting on each spot 0.75 μL of saturated sinapinic acid in acetonitrile (ACN).
Sample preparation: At collection time point, 2 μL of reaction mixtures were pipetted out into […] MALDI matrix solution (saturated solution of sinapinic acid in 1:1 ACN:water solution containing 0.15% trifluoroacetic acid (TFA)) deposited on 384 well polypropylene plate. The resulting solution was mixed by aspiration, centrifuged at 931 g for 1 minute, then 1.5 μL aliquots were dispensed on pre-treated MALDI target using Beckman Coulter Biomek FX^P 96/384-Span-8 Laboratory Automation Workstation. Finally, the MALDI target was dried under a mild vacuum to produce spots with a fine crystalline structure.
Measurements: MALDI-TOF measurements were performed on Bruker Daltonics rapifleX Tissuetyper TOF-TOF mass spectrometer using linear mode and mass ranging from 16.0 to 19.6 kDa. Detector gain was set to 0.64×(459 V), sample rate to 5 GS/s, real-time smoothing to medium (175 MHz), laser smart beam pattern was set to “Custom” single smartbeam beam scan with a scan range of 40 μm on both X and Y axis, and the laser frequency was 10000 Hz. Spectra were automatically collected using the custom AutoXecute method. Laser power was auto adjusted using fuzzy control. The peak selection range was set to be between 16.0 and 18.5 kDa. Peak evaluation uses a half-width parameter set to be smaller than 40 Da for processed spectrograms (centroid peak detection; smoothed by SavitzkyGolay algorithm using 7 m/z width and 2 cycles; baseline was subtracted using a median algorithm with flatness 1 and median level 0). Fuzzy control used Proteins/Oligonucleotides protocol with minimum half-width 1/10 times above threshold. Up to 40000 satisfactory shots were collected in 10000 short steps. Dynamic termination was implemented to finish data collection when the peak signal/noise ratio was reaching a value of 1000.
Spectra processing: Spectra were smoothed by SavitzkyGolay algorithm using 7 m/z width and three cycles. Centroid peak detection algorithm was used with signal to noise threshold set to 6, relative intensity threshold 3%, peak width 10 m/z, and median baseline subtraction using flatness of 1 and the median level of 0.1. Peak intensity and area under the peak were evaluated and recorded for all peaks between 16.0 and 19.5 kDa.
Calculation of percent modification: Percent modification was calculated as a ratio of peak height for protein modified by compound to the sum of the peak height of remaining protein plus peak height for protein modified by a compound. If multiple modifications were observed each was calculated as a ratio of peak height for given modification versus the sum of peak heights for all observed protein species.

SMILES	pIC50 [1]	pIC50 ([1]; Homo sapiens, BT-474)	% of modification [2]
C=CC(=O)N1CCn2ncc(-c3nc(-c4ccc5c(c4)CCNC5)c4ccsc4c3-c3ccc(F)cc3OCCOC)c2C1 [Compound 77]	< 5.52		D (percent of modification <25%)
C=CC(=O)N1CC(n2cc(-c3nc(-c4ccc5c(c4)CCNC5)c4ccsc4c3-c3ccc(F)cc3OC)cn2)C1 [Compound 82, 1-[3-[4-[7-(4-fluoro-2-methoxy-phenyl)-4-(1,2,3,4-tetrahydroisoquinolin-6-yl)thieno[3,2-c]pyridin-6-yl]pyrazol-1-yl]azetidin-1-yl]prop-2-en-1-one]		> 7.00	A (percent of modification of PIK3CA protein ≥75%)
C=CC(=O)N1CC(n2cc(-c3nc(-c4ccc5c(c4)CNC(=O)C5)c4ccsc4c3-c3cccnc3OC)cn2)C1 [Compound 84, 7-[7-(2-methoxy-3-pyridyl)-6-[1-(1-prop-2-enoylazetidin-3-yl)pyrazol-4-yl]thieno[3,2-c]pyridin-4-yl]-2,4-dihydro-1H-isoquinolin-3-one]		5.52 to 6.00	B (50%<percent of modification <75%)
C=CC(=O)N1CCc2nc(-c3nc(-c4ccc5c(c4)CCNC5)c4ccsc4c3-c3ccc(F)cc3OC)sc2C1 [Compound 87, 1-[2-[7-(4-fluoro-2-methoxy-phenyl)-4-(1,2,3,4-tetrahydroisoquinolin-6-yl)thieno[3,2-c]pyridin-6-yl]-6,7-dihydro-4H-thiazolo[5,4-c]pyridin-5-yl]prop-2-en-1-one]		6.00 to 7.00	A (percent of modification of PIK3CA protein ≥75%)
C=CC(=O)N1CCc2ncc(-c3nc(-c4ccc5c(c4)CCNC5)c4c(c3-c3ccc(F)cc3OC)CCC4)cc2C1 [Compound 89, 1-[3-[4-(4-fluoro-2-methoxy-phenyl)-1-(1,2,3,4-tetrahydroisoquinolin-6-yl)-6,7-dihydro-5H-cyclopenta[c]pyridin-3-yl]-7,8-dihydro-5H-1,6-naphthyridin-6-yl]prop-2-en-1-one]		6.00 to 7.00	A (percent of modification of PIK3CA protein ≥75%)
C=CC(=O)N1CC(n2cc(-c3nc(-c4ccc5c(c4)CCNC5)c4ccsc4c3-c3cnn(C)c3)cn2)C1 [Compound 90]	< 5.52		D (percent of modification <25%)
C=CC(=O)N1CC(n2cc(-c3nc(-c4ccc5c(c4)CNC(=O)C5)c4ccsc4c3-c3ccc[nH]c3=O)cn2)C1 [Compound 91]	< 5.52		D (percent of modification <25%)
C=CC(=O)N1CCC(n2cc(-c3nc(-c4ccc5c(c4)CCNC5)c4ccsc4c3-c3ccc(F)cc3C#N)cn2)CC1 [Compound 93]	< 5.52		C (25%≤percent of modification <50%)
C=CC(=O)N1CCc2nc(-c3nc(-c4ccc5c(c4)CCNC5)c4c(c3-c3ccc(F)cc3OC)CCC4)sc2C1 [Compound 96, 1-[2-[4-(4-fluoro-2-methoxy-phenyl)-1-(1,2,3,4-tetrahydroisoquinolin-6-yl)-6,7-dihydro-5H-cyclopenta[c]pyridin-3-yl]-6,7-dihydro-4H-thiazolo[5,4-c]pyridin-5-yl]prop-2-en-1-one]		6.00 to 7.00	A (percent of modification of PIK3CA protein ≥75%)
C=CC(=O)N1CC(n2cc(-c3nc(-c4ccc5c(c4)CCNC5)c4c(c3-c3ccc(F)cc3OC)CCC4)cn2)C1 [Compound 97, 1-[3-[4-[4-(4-fluoro-2-methoxy-phenyl)-1-(1,2,3,4-tetrahydroisoquinolin-6-yl)-6,7-dihydro-5H-cyclopenta[c]pyridin-3-yl]pyrazol-1-yl]azetidin-1-yl]prop-2-en-1-one]		6.00 to 7.00	A (percent of modification of PIK3CA protein ≥75%)

More lines, main results first:

pIC50 [1]	pIC50 ([1]; Homo sapiens, BT-474)	SMILES	% of modification [2]
< 5.52		C=CC(=O)N1CCC(n2cc(-c3nc(-c4ccc5c(c4)CNC(=O)C5)c4ccsc4c3-c3ccccc3)cn2)CC1 [Compound 75]	B (50%<percent of modification <75%)
> 7.00		C=CC(=O)N1CC(n2cc(-c3nc(-c4cnn(C)c4)c4ccsc4c3-c3ccc(F)cc3OC)cn2)C1 [Compound 76]	A (percent of modification of PIK3CA protein ≥75%)
> 7.00		C=CC(=O)N1CC(n2cc(-c3nc(-c4ccc5c(c4)CCN(C)C5)c4ccsc4c3-c3ccc(F)cc3OCCOC)cn2)C1 [Compound 78]	A (percent of modification of PIK3CA protein ≥75%)
> 7.00		C=CC(=O)N1CC(n2cc(-c3nc(-c4ccc5c(c4)CNC(=O)C5)c4ccsc4c3-c3ccc(F)cc3OC)cn2)C1 [Compound 79]	A (percent of modification of PIK3CA protein ≥75%)
6.00 to 7.00		C=CC(=O)N1CCc2ccc(-c3nc(-c4ccc5c(c4)CNC(=O)C5)c4ccsc4c3-c3ccc(F)cc3OC)cc2C1 [Compound 80]	A (percent of modification of PIK3CA protein ≥75%)
> 7.00		C=CC(=O)N1CCc2ccc(-c3nc(-c4ccc5c(c4)CCN(C)C5)c4ccsc4c3-c3ccc(F)cc3OCCOC)cc2C1 [Compound 83]	A (percent of modification of PIK3CA protein ≥75%)
6.00 to 7.00		C=CC(=O)N1CC(n2cc(-c3nc(-c4ncn(C)n4)c4ccsc4c3-c3ccc(F)cc3OCCOC)cn2)C1 [Compound 85]	A (percent of modification of PIK3CA protein ≥75%)
> 7.00		C=CC(=O)N1CCc2ncc(-c3nc(-c4ccc5c(c4)CCNC5)c4ccsc4c3-c3ccc(F)cc3OC)cc2C1 [Compound 86]	A (percent of modification of PIK3CA protein ≥75%)
> 7.00		C=CC(=O)N1CCc2ncc(-c3nc(-c4ccc5c(c4)CCNC5)c4c(c3-c3ccc(F)cc3OCCOC)CCC4)cc2C1 [Compound 88]	A (percent of modification of PIK3CA protein ≥75%)
> 7.00		C=CC(=O)N1CCC(n2cc(-c3nc(-c4ccc5c(c4)CS(=N)(=O)C5)c4ccsc4c3-c3ccc(F)cc3OCCOC)cn2)CC1 (centres unmarked) [Compound 94]	A (percent of modification of PIK3CA protein ≥75%)
> 7.00		C=CC(=O)N1CC(n2cc(-c3nc(-c4ccc5c(c4)CS(=O)(=O)C5)c4ccsc4c3-c3ccc(F)cc3OC)cn2)C1 [Compound 95]	A (percent of modification of PIK3CA protein ≥75%)
5.52 to 6.00		C=CC(=O)N1CC(n2cc(-c3nc(N4CCC5(CC4)CNC5)c4ccsc4c3-c3ccc(F)cc3OCCOC)cn2)C1 [Compound 98]	A (percent of modification of PIK3CA protein ≥75%)
